The values that follow come from ChEMBL document CHEMBL3997845, “Identification of a novel hormone sensitive lipase inhibitor with a reduced potential of reactive metabolites formation” (Bioorg Med Chem, 2017).

Each structure is given as a SMILES string. Activity calls are given as the source filed them. The calls are words filed in the database; no cut-off is given here.

Data set [1] has as its system Rattus norvegicus. The data set is described as follows: Antilipolytic activity in Wistar rat assessed as reduction in plasma glycerol AUC (0 to 7 hrs) at 10 mg/kg, po. Format: functional, organism-based.
Data set [2] is described as follows: Metabolic stability in rat liver microsomes assessed as parent compound remaining at 1 uM after 30 mins in presence of NADPH generating system by LC-MS/MS analysis. The data set is classed as ADME, microsome. The settings on record: read-out: Stability. For orientation: Microsomes from liver hold many membrane-bound enzymes, among them those of drug oxidation.

Data set [3] is described as follows: Cmax in Wistar rat at 3 mg/kg, po by LC-MS/MS analysis. Format: ADME, organism-based. More on the design: dose 3 mg/kg, route oral. The settings on record: in vivo.
Data set [4] in a line: AUC (0 to 7 hrs) in Wistar rat at 3 mg/kg, po by LC-MS/MS analysis. The data set is classed as ADME, organism-based. More on the design: dose 3 mg/kg, time < 7 hr, route oral. The settings on record: in vivo.
In data set [5] the test system is Rattus norvegicus. Nature of the data set: Antilipolytic activity in Wistar rat assessed as reduction in plasma glycerol AUC (0 to 7 hrs) at 3 mg/kg, po relative to control. Format: functional. On the set-up: scale not given: the % may be the effect or the level left.
The test system of another data set is Liver. Nature of the data set: Drug level in human liver microsomes treated with 2-(4-(5-(trifluoromethyl)pyridin-2-yloxy)benzyloxy)phenylboronic acid at 500 uM after 60 mins in presence of [13C2,15N-Gly]GSH and NADPH generating system by LC-MS/MS analysis. The data set is classed as ADME, microsome. The settings on record: 1 h.

Regarding `O=C(Oc1ccc(Oc2ccc(C(F)(F)F)cn2)cc1)N1CCC(O)CC1`, in the data set on Rattus norvegicus [1], the result was Active.

Usually Cmax stands for the maximum level reached in the sampled fluid or tissue. What is called AUC(0-t) is the area under the concentration-time curve up to a stated or last time point. `O=C(Nc1ccc(Cl)cc1B(O)O)c1ccc(Oc2ccc(C(F)(F)F)cc2)nc1`: the remaining at 0.5 h, 1 µM in data set [2] was determined as 81%. The Cmax in data set [3] amounted to 3350 ng/mL. In data set [4], this molecule gave an AUC(0-t) at 7 h of 19600 ng·h/mL. Besides, in the data set on Rattus norvegicus [5], the Activity was 17%.

In the case of `O=C(O)CNC(=O)C1CSC(c2ccc(Oc3ccc(C(F)(F)F)cn3)cc2)N1` (stereo unspecified), the Drug metabolism entry in the data set with Liver is listed as “Metabolite_Detected”.
